Experimental data published in ChEMBL document CHEMBL3808352, “Pyrazolylamine Derivatives Reveal the Conformational Switching between Type I and Type II Binding Modes of Anaplastic Lymphoma Kinase (ALK)” (J Med Chem, 2016).

Assay: Lipophilicity, log P of the compound
Format: physicochemical
Details: octanol/water

SMILES	logP
Cc1cc(-c2cc(NC(=O)c3ccc(CN4CCN(C)CC4)cc3)[nH]n2)ccc1NC(=O)Nc1cc(C(C)(C)C)on1	4.54
Cc1cc(-c2cc(NC(=O)c3ccc(CN4CCN(C)CC4)cc3)[nH]n2)ccc1N	2.61
